Source: PMC7000521, “Hazard Characterization of Synthetic Cathinones Using Viability, Monoamine Reuptake, and Neuronal Activity Assays” (Frontiers in Neuroscience, 2020)
pIC50: −log10 of the molar value. Like-named read-outs stand apart in the source and are kept apart here.

How the values were obtained:
hSERT = target: T1, hSERT (Homo sapiens, UniProt P31645); assay: Monoamine uptake assay (fluorescent substrate), hSERT; type: cell-based
T1 construct: expressed in transfected cells
Procedure: (§1) Human embryonic kidney (HEK) 293 cells stably expressing human DAT, NET, or SERT (kindly provided by Dr. Hoener from F. Hoffmann-La Roche Ltd., Basel, Switzerland) were cultured as described in [Zwartsen et al. (2017)].
(§2) Uptake activity of hNET, hDAT, and hSERT was measured using the Neurotransmitter Transporter Uptake Assay Kit from MDS Analytical Technologies (Sunnyvale, CA, United States) as described in detail previously ([Zwartsen et al., 2017]). The kit contained a mixture consisting of a fluorescent substrate, which resembles the biogenic amine neurotransmitters, and a masking dye that extinguishes extracellular fluorescence. Uptake of the fluorescent substrate, a measure of neurotransmitter transporter function, increases intracellular fluorescence, while extracellular fluorescence is blocked by the masking dye ([Jorgensen et al., 2008]). […]
(§3) On day 0, HEK 293 cells were seeded (60,000 cells/well) in clear-bottom black-walled 96-well plates coated with poly-L-lysine (PLL, 50 mg/L). […] During incubation, intracellular fluorescence was measured every 3 min. […] Effects of 3-MMC, 4-MMC, 4-MEC, methylone, pentedrone, MDPV, 3-MMCinternet, and 4-MECinternet were measured at final concentrations of 0.03–300/1000 μM. Fluorescence was measured with a microplate reader (Tecan Infinite M200 microplate; Tecan Trading Männedorf, Switzerland) at 37°C at 430/515 nm excitation/emission wavelength. […]

[1] = system: rat primary cortical cultures; design: method as in Zwartsen et al., 2019; conditions: value [CI], published previously ref Zwartsen et al., 2019, cited from earlier work
hNET = target: T2, hNET (Homo sapiens, UniProt P23975); assay: Monoamine uptake assay (fluorescent substrate), hNET; type: cell-based
T2 construct: expressed in transfected cells
T2 sequence (P23975 whole entry): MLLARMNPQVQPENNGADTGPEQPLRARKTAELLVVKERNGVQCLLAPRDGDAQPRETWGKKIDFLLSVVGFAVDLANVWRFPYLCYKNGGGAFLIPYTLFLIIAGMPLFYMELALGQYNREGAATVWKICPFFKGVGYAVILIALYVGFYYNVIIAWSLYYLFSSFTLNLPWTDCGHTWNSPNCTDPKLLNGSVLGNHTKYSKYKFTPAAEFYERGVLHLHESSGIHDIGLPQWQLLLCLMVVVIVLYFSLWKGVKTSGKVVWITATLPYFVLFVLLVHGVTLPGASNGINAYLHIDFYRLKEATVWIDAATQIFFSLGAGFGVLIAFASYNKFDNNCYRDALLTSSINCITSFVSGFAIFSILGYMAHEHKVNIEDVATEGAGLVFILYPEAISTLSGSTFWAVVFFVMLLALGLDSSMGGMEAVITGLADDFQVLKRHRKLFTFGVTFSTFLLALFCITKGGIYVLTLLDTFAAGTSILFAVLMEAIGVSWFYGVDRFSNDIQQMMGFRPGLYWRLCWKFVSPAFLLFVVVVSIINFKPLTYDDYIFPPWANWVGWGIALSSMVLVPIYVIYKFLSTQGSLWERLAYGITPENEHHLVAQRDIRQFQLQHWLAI
Procedure: as §1, §2, §3

T1 sequence (P31645 whole entry): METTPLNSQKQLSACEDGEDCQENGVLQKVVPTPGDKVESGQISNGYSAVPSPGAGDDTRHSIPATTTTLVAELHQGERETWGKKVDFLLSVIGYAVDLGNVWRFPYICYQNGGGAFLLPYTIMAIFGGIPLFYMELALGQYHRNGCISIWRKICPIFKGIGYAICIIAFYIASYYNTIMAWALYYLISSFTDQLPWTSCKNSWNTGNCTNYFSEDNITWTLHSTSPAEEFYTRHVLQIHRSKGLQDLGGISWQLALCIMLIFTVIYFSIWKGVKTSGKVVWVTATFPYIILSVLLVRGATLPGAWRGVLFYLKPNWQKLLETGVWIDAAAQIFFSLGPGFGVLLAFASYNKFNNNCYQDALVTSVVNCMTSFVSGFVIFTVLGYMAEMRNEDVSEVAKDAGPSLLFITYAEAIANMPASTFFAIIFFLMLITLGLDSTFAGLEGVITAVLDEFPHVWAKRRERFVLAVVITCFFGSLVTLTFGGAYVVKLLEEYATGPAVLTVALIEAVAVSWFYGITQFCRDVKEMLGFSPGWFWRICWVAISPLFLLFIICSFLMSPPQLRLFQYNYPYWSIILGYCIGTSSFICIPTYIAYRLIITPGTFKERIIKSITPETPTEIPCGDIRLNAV

SMILES | pIC50 (hSERT) | pIC50 ([1]; acute exposure 30 min, read-out: Neuronal activity IC50, mean burst rate (MBR), acute) | pIC50 ([1]; acute exposure 30 min, read-out: Neuronal activity IC50, mean network burst rate (MNBR), acute) | pIC50 ([1]; acute exposure 30 min, read-out: Neuronal activity IC50, mean spike rate (MSR), acute) | pIC50 ([1]; prolonged exposure 4.5 h, read-out: Neuronal activity IC50, mean burst rate (MBR), prolonged) | pIC50 (hNET)
CCCC(C(=O)c1ccc2c(c1)OCO2)N1CCCC1 (stereo not shown) [MDPV, 1-(1,3-benzodioxol-5-yl)-2-pyrro lidin-1-ylpentan-1-one] | 5.35 | 4.40 | 4.46 | 4.52 | 4.21 | 7.52
CCCC(NC)C(=O)c1ccccc1 (stereo not shown) [Pentedrone, 2-(methylamino)-1-phenyl pentan-1-one] | 4.80 | – | – | – | – | –
